# Experimental data: patent publication US11834672B2, “Method for producing hypophysis precursor tissue” (RIKEN, priority 2011, dated 2023)
# “Also recorded” adds a separate entry of the source. Ends that are not written are not given here.
# Tests used:
# [1] = system: ES cell-derived pituitary precursor tissue; assay: Differentiation of ES cell-derived pituitary precursor tissue into ACTH-producing cells, fluorescence antibody staining; type: cell-based, mouse; conditions: for expression of Pitx1: DAPT, BIO or IWP2 treatment, day 26 (FIG. 3k)
# Protocol: Furthermore, using gfCDM medium, the aggregates were cultured under 40% O2 and 5% CO2 for 12 days in total (total 22 days). Moreover, the aggregates were treated with Notch signal inhibitor, 10 μM DAPT, for one day during days 18-19 or days 20-21 of culture.
# [2] = system: ES cell-derived pituitary precursor tissue; assay: Differentiation of ES cell-derived pituitary precursor tissue into GH-, PRL-, LH-, FSH-, TSH-positive cells; type: cell-based, mouse
# Protocol: Mouse ES cells were differentiated into pituitary precursor tissues by an SAG treatment (400 nM for 7 days and 100 nM for 3 days, total 10 days) using the method of Example 2. Furthermore, the aggregates were continuously floating-cultured under 40% O2 and 5% CO2. The medium used was gfCDM comprising corticosteroid (200 ng/ml hydrocortisone) and 1 nM insulin, gfCDM comprising estrogen (50 ng/ml estradiol) and 1 nM insulin, or culture supernatant (conditioned medium) of mouse feeder cell, PA6 cell, in gfCDM.
# The expression of growth hormone (GH), prolactin (PRL), luteinizing hormone (LH), follicle-stimulating hormone (FSH), and thyroid-stimulating hormone (TSH) was confirmed by cytochemical staining of frozen section by the fluorescence antibody method.
# [3] = system: ES cell-derived ACTH-producing cells; assay: In vitro ACTH secretion from ES cell-derived ACTH-producing cells by CRH, ELISA of culture supernatant; type: cell-based, mouse
# [4] = system: ES cell-derived ACTH-producing cells; assay: as above; type: cell-based, mouse; conditions: 10 min, SAG- and DAPT-treated aggregates
# Protocol: Mouse ES cells were differentiated into ACTH-producing cells by a SAG treatment and a DAPT treatment (total 22 days) using the method of Example 3. The aggregates were treated with CRH (corticotropin releasing factor) and ACTH secretion was quantified. To be specific, eight aggregates were placed in 500 μl of HBSS solution and, after pre-incubation at 37° C. for 10 min, CRH was added at a final concentration of 10-10000 ng/ml, and the aggregates were incubated for 10 min. Then, the culture supernatant was recovered and measured by ELISA method (FIG. 4a).
# [5] = system: mouse ES cell aggregates (10000 cells per aggregate); assay: Induction of pituitary precursor tissue (Lim3) in mouse ES cell aggregates by hedgehog signal treatment; type: cell-based
# Protocol: Aggregates of mouse ES cells were formed from 10000 cells per aggregate by using the SFEBq/gfCDM method (Wataya et al, 2008, PNAS vol. 105, pp. 11796-11801), and subjected to the floating-culture as in Example 1. Immediately after the start of the differentiation culture, SAG (Danjo et al, JNS, 2011, vol. 31, pp. 1919-1933), a hedgehog agonist, was added at 100 or 400 nM, and the aggregates were cultured for a total of 10-13 days. […] The expression of Lim3, a marker of pituitary precursor tissue (Rathke's pouch), and the like was confirmed by PCR or cytochemical staining of frozen section by the fluorescence antibody method. The expression of Lim3 was also confirmed using Lim3::GFP knocked-in ES cells.
# hedgehog signaling = conditions: cited from earlier work
# human ES cells = assay: Floating aggregate culture of human ES cells with BMP4 and SAG, Pitx1 by qPCR and marker staining; type: cell-based; conditions: for E-cad positive non-neural ectoderm morphology: BMP-treated group, day 25 of culture
# Protocol: Human ES cells (12000 cells) dispersed into single-cells with trypsin were subjected to floating aggregate culture in the presence of a […] ROCK inhibitor Y-27632 (Watanabe et al, Nature Neuroscience, 2007) in the same manner as in Example 1. The culture medium used was gfCDM added with 5% KSR. From day 3 of culture, 0.5 nM, 1.5 nM or 5.0 nM BMP4 was added to the culture medium, 1000 nM SAG was added from day 6 of culture, and the floating-culture was continued.
# mouse ES cell aggregates = assay: SFEBq/gfCDM floating culture of mouse ES cell aggregates, non-neural head ectoderm marker Pitx2 by qPCR; type: cell-based; conditions: BMP4 0.5 nM added to the medium, SFEBq/CDM-cultured ESCs
# [6] = SAG 100 or 400 nM, PCR on day 10 and later
molecule,measurement,setting,value
Cc1ccc2nc(NC(=O)CSc3nc4c(c(=O)n3-c3ccccc3)SCC4)sc2c1 [IWP2],expression of Pitx1,[1],tended to decrease
C[C@]12CCC(=O)C=C1CC[C@@H]1[C@@H]2[C@@H](O)C[C@@]2(C)[C@H]1CC[C@]2(O)C(=O)CO [hydrocortisone],GH-positive cells in the aggregate,[2]; gfCDM with 200 ng/ml hydrocortisone and 1 nM insulin for 10 days from day 20,many GH-positive cells
same,effect of pre-treatment on the ACTH secretion promoting effect of CRH,[3]; hydrocortisone 100 ng/ml pre-treatment for 60 min,suppressed almost completely; also recorded: suppressed the enhancement of ACTH secretion by CRH
"CRH: corticotropin releasing factor, hypothalamic hormone promoting ACTH secretion (SEEPPISLDLTFHLLREVLEMARAEQLAQQAHSNRKLMEII; ends and bridges not checked; UniProt P06850 154-194, looked up)",ACTH concentration of the culture supernatant,[4]; 10 ng/ml CRH,1.4 pg/mL
same,ACTH concentration of the culture supernatant,[4]; 100 ng/ml CRH,4 pg/mL
same,ACTH concentration of the culture supernatant,[4]; 1000 ng/ml CRH,8.5 to 9.5 pg/mL
same,ACTH concentration of the culture supernatant,[4]; 10000 ng/ml CRH,8.5 to 9.5 pg/mL
same,ACTH secretion,"[3]; 1000 ng/ml CRH, aggregates without SAG treatment",did not show a significant increase
same,ACTH secretion,"[3]; CRH added, aggregates with SAG treatment but without DAPT treatment",did not show much increase
same,induction of ACTH secretion by releasing hormones,[3]; SAG- and DAPT-treated aggregates (FIG. 4b),CRH-specific; also recorded: enhancement of ACTH secretion
Cc1nn(-c2ccccc2)c(C)c1/C=N/N1CCN(Cc2ccccc2)CC1 [SANT-1],effect on SAG induction of Lim3,[5]; hedgehog receptor antagonist added to SAG-treated aggregates,inhibited
"O=C1Nc2cc(Br)ccc2/C1=C1/Nc2ccccc2/C1=N\O [BIO, 6-bromoindirubin-3′-oxime]",further increase of GH-positive cells,"[2]; BIO 250 nM during days 16-18 of culture, then hydrocortisone and insulin",30-50%
same,expression of Pitx1,[1],greatly increased
CNC1CCC(N(Cc2cccc(-c3ccncc3)c2)C(=O)c2sc3ccccc3c2Cl)CC1 (stereo not drawn) [SAG],activity compared with Shh,hedgehog signaling,several-fold stronger activity than Shh
same,gene expression of Lim3 relative to SAG non-addition group,[5]; [6],7 fold
same,gene expression of Lim3 relative to undifferentiated ES cells,[5]; [6],15 fold
same,number of Lim3-positive epithelial pouch vesicles formed in the aggregate,"[5]; SAG-addition group, further 3 days in gfCDM, total 13 days",1-7
C[C@H](NC(=O)Cc1cc(F)cc(F)c1)C(=O)N[C@H](C(=O)OC(C)(C)C)c1ccccc1 [DAPT],expression of Tbx19 compared to without DAPT treatment,"[1]; 10 μM DAPT for one day, days 18-19 or 20-21, SAG-treated aggregates",enhanced Tbx19 expression
same,percentage of ACTH-positive cells,"[1]; 10 μM DAPT for one day, day 22",increased percentage
same,size of assemblies of Tbx19- and ACTH-highly positive cells,"[1]; 10 μM DAPT treatment, assemblies in plural sites",> 30 cells
same,expression of Pitx1,[1],"did not increase, or rather decreased"
"BMP4: Bone Morphogenetic protein of the BMP2/4 group; exogenous BMP signal promoter (protein, UniProt P12644 293-408, looked up) Bone morphogenetic protein 4: SPKHHSQRARKKNKNCRRHSLYVDFSDVGWNDWIVAPPGYQAFYCHGDCPFPLADHLNSTNHAIVQTLVNSVNSSIPKACCVPTELSAISMLYLDEYDKVVLKNYQEMVVEGCGCR",expression of Pitx1 compared to the group without the treatment,"human ES cells; 5 nM BMP4 from day 3, 12000 cells/aggregate, qPCR day 17",about 10 fold
same,result when started from 3000 and 6000 human ES cells,human ES cells; BMP4 added to the medium,equivalent results were obtained
same,E-cad positive non-neural ectoderm morphology,human ES cells,formation of E-cadherin^+ thickened non-neural ectoderm
same,E-cad positive non-neural ectoderm morphology,human ES cells; listed as BMP,a part thereof was thickened to show a placode-like structure
same,expression of Pitx2,mouse ES cell aggregates,increases; also recorded: elevation of Pitx2 expression
"FGF8: FGF signal promoter (protein, UniProt P55075 23-233, looked up) Fibroblast growth factor 8: QEGPGRGPALGRELASLFRAGREPQGVSQQHVREQSLVTDQLSRRLIRTYQLYSRTSGKHVQVLANKRINAMAEDGDPFAKLIVETDTFGSRVRVRGAETGLYICMNKKGKLIAKSNGKGKDCVFTEIVLENNYTALQNAKYEGWYMAFTRKGRPRKGSKTRQHQREVHFMKRLPRGHHTTEQSLRFEFLNYPPFTRSLRGSQRTWAPEPR",increase of tissues expressing Lim3,"[5]; FGF8 200 ng/ml during day 10-13, gfCDM without SAG",30-50%
